Where two headings read alike, the source gives them in different places.
What was measured:
NOD1 [1] = target: T1, NOD1 (Homo sapiens, UniProt Q9Y239); settings: relative to iE-DAP; cited from earlier work
T1 construct: host or cells: HEK-293T-derived HEK-Blue NF-kB/SEAP reporter cells
T1 sequence (Q9Y239 1-953): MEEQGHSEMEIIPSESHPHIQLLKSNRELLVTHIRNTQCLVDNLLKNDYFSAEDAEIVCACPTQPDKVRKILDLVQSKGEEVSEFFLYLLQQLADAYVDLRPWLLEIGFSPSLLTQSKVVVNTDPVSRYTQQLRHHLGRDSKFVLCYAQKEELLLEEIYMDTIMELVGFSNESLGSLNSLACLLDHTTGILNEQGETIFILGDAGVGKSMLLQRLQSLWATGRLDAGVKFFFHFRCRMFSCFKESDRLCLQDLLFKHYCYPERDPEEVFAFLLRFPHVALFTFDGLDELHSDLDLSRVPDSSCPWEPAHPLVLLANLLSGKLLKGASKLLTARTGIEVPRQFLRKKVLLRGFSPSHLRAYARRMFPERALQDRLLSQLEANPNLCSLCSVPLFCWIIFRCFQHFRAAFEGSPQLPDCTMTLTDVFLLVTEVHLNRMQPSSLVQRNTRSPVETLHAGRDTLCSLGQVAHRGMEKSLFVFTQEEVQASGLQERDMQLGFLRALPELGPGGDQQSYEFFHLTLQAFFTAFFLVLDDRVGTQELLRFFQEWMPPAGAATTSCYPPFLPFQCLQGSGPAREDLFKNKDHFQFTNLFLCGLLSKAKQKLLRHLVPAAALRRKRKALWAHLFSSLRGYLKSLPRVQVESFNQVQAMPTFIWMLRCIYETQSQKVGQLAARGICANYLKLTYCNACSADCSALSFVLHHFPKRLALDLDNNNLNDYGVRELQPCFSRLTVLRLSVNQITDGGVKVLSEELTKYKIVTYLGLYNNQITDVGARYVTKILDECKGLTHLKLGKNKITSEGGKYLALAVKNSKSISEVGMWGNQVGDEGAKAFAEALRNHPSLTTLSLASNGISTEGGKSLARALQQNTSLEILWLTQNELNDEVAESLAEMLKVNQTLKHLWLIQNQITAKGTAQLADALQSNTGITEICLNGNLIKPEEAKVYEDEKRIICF

NOD2 = target: T2, NOD2 (Homo sapiens, UniProt Q9HC29); experiment: NOD2-HEK-Blue NF-κB reporter cell activation assay (NOD2-expressing HEK-293T cells); assay type: cell-based
T2 construct: host or cells: HEK-293T-derived HEK-Blue NF-kB/SEAP reporter cells
T2 sequence (Q9HC29 whole entry): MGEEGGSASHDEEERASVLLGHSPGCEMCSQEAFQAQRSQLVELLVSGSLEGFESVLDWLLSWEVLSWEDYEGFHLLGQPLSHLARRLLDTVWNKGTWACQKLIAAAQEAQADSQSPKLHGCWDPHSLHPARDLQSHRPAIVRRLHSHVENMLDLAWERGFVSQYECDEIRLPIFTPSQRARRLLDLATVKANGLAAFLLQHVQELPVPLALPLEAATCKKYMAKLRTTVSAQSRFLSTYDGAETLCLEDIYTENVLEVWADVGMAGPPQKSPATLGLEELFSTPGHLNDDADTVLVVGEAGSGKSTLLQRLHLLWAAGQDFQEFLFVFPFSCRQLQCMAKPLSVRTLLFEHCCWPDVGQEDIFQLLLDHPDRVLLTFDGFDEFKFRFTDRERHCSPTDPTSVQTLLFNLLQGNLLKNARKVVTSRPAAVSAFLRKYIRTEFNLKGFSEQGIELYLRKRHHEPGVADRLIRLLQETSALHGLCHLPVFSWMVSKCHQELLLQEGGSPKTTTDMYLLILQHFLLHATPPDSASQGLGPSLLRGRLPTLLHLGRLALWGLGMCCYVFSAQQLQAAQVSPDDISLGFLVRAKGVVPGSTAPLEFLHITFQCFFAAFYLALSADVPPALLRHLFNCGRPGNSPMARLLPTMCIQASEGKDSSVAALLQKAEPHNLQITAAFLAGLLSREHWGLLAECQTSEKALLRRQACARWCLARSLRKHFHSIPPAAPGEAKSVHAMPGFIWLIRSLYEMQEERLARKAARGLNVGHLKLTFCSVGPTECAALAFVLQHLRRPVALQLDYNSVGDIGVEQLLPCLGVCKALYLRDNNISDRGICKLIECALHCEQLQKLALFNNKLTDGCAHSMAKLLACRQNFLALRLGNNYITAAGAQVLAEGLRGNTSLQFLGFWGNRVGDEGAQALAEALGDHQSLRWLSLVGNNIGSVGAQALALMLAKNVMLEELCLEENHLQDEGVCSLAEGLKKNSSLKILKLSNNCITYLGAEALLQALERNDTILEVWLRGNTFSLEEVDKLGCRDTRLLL
Description: FIG. 1(A-F). Virtual screening for small molecule NOD2 agonists. A, Docked structure of muramyl dipeptide (MDP) in the leucine-rich repeat (LRR) domain of rabbit NOD2 (pdb 5IRM). […] B, Results of virtual docking approach with reported chemical structures related to MDP. C, Workflow of virtual screening in which a library was generated using carboxylic acids appended to the L-Val-D-Glu dipeptide and then docked to the NOD2 LRR domain. D, Desmuramyl MDP (dMDP) structures resulting from the virtual screen that were synthesized for further screening. Chemicals shown as a pure enantiomer were synthesized as a racemic mixture. E, Activation of NOD2-expressing HEK-293T cells treated for 16 h with 10 µM of the indicated compound using a colorimetric assay. F, Dose-dependent activation of NOD2-expressing HEK-293T cells using the indicated compounds. Numbers in parentheses represent calculated negative log of the half maximal effective concentration (pEC50) values. NOD activation assays were analyzed using a one-way ANOVA with Dunnett's multiple comparisons test compared to the DMSO control. pEC50 values were derived by a three-parameter dose-response nonlinear regression. ****P<0.0001.
FIG. 2(A-G). Structure-activity relationship studies of 3,5-dimethyl-N-arylpyrazole NOD2 agonists. A, Structures of 3,5-dimethyl-N-arylpyrazole structures synthesized for SAR studies. B-F, Dose-dependent activation of NOD2-expressing HEK-293T cells using the indicated compounds grouped by similar structural perturbations. Numbers in parentheses represent calculated pEC50 values. G, Graph of calculated pEC50 values vs. calculated partition coefficient (clogP). Dotted lines show equivalent lipophilic ligand efficiency (LLE) values. Red arrow indicates optimization of the TT007 scaffold to TT030. pEC50 values were derived by a three-parameter dose-response nonlinear regression.
(§1) Cell culture. The following cell lines were used and sourced as follows: HEK-Blue NOD2 (InvivoGen, hkb-hnod2), HEK-Blue NOD1 (InvivoGen, hkb-nod1), HEK-Blue Null2 (hkb-null2), and B16-F10 (ATCC CRL-6475). All cell lines were cultured at 37° C. in 5% CO2 in DMEM (ThermoFisher, 11995065) supplemented with 10% fetal bovine serum (FBS), 100 U mL-1 penicillin, and 100 μg mL-1 streptomycin. Cells were maintained at no greater than 70% confluency and subcultured using TrypLE Express. Cell lines were routinely cultured without antibiotics to ensure no bacterial infection and tested for mycoplasma using a Universal Mycoplasma Detection Kit (ATCC 30-1012K). Primary human peripheral mononuclear blood cells (PBMCs) were cultured at 37° C. in 5% CO2 in RPMI 1640 (ThermoFisher, 61870143) supplemented with 10% FBS. All experimental work using human samples was reviewed and approved by the Scripps Research Institutional Review Board (Protocol IRB-21-7816NOD2).
Reporter cell line activation assay. Approximately 24 h before the assay, culture medium for each of the HEK-Blue reporter cell lines was replaced with a 1:1 mixture of DMEM supplemented with 10% FBS and OptiMEM. On the day of the assay, single cell suspensions (150,000 cells/mL) were produced in HEK-Blue detection medium (InvivoGen, hb-det2). Cells were aliquoted at 200 μL per well of a 96-well plate containing 0.2 μL of a 1000× stock of each test compound in DMSO. Cells were then incubated at 37° C. in 5% CO2 for 8-10 h. To measure activity, wells were then gently pipetted up and down to mix the conditioned medium, and absorbance from the colorimetric product of the secreted alkaline phosphatase was measured at 630 nm. In some assays, cells were stimulated for 16 h with compounds as described above in complete DMEM. Then, 20 μL of the conditioned medium was mixed with 180 μL QUANTI-Blue solution (InvivoGen, rep-qbs) and incubated for 2-4 h at 37° C. Activity was then measured by absorbance as described above.

HEK-Blue Null2 = experiment: NULL HEK-Blue NF-κB reporter cell activation assay (control); assay type: cell-based; settings: 10 μM, 16 h (FIG. 5)
Method: (§2) FIG. 5(A-B). Lead 3,5-dimethyl-N-arylpyrazole TT007 specifically activates NOD2. A-B, Activation of Null (control) and NOD1-expressing HEK-293T cells treated for 16 h with 10 μM of the indicated compound using a colorimetric assay. ****P<0.0001.
as §1, with “All experimental work using human samples was reviewed and approved by the Scripps Research Institutional Review Board (Protocol IRB-21-7816NOD2).” left out
(§3) Reporter cell line activation assay. […] To measure activity, wells were then gently pipetted up and down to mix the conditioned medium, and absorbance from the colorimetric product of the secreted alkaline phosphatase was measured at 630 nm. […] Activity was then measured by absorbance as described above.

NOD1 [2] = target: T1, NOD1; experiment: NOD1 HEK-Blue NF-κB reporter cell activation assay (NOD1-expressing HEK-293T cells); assay type: cell-based; settings: 10 μM, 16 h (FIG. 5)
Method: as §2
as §1, with “All experimental work using human samples was reviewed and approved by the Scripps Research Institutional Review Board (Protocol IRB-21-7816NOD2).” left out
as §3

SMILES | Greater activation of NOD1-dependent NF-κB reporter (NOD1 [1]) | Activation of NOD2-expressing HEK-293T cells, colorimetric assay (NOD2; 10 µM, 16 h (FIG. 1E)) | EC50 (NOD2; FIG. 1F, read-out: pEC50, dose-dependent NOD2 activation (converted)) | EC50 (NOD2; calculated, three-parameter dose-response nonlinear regression, read-out: pEC50 (μM), dose-dependent activation of NOD2-expressing HEK-293T cells (converted)) | Activation of NULL HEK-Blue NF-κB reporter cells (HEK-Blue Null2) | Activation of NOD1 HEK-Blue NF-κB reporter cells (NOD1 [2])
CCCCCCCCCCCC(=O)N[C@H](CCC(=O)NC(CCCC(N)C(=O)O)C(=O)O)C(=O)O (stereo partly drawn) [C12-iE-DAP] | ~100 fold | – | – | – | – | –
CCOC(=O)CC[C@@H](NC(=O)[C@@H](NC(=O)c1c(C)nn(-c2ccc(F)cc2)c1C)C(C)C)C(=O)OCC [TT007, Diethyl (1-(4-fluorophenyl)-3,5-dimethyl-1H-pyrazole-4-carbonyl)-L-valyl-D-glutamate] | – | active | ~1 µM | 1 µM | inactive | inactive
